Reference: patent US10689377B2 (Mirati Therapeutics, Inc., priority 2017, dated 2020)

What follows are compounds tested against KRas G12C (Homo sapiens, UniProt P01116, G12C) (assay: Cellular inhibition of KRas G12C measured by Phospho-ERK in NCI-H358 cells). Conditions: pERK(Thr202/Tyr204) normalized with GAPDH, NCI-H358 cells, 3 hours; read-out: IC50.
Chain of KRas G12C (P01116 1-188 isoform P01116-2 G12C): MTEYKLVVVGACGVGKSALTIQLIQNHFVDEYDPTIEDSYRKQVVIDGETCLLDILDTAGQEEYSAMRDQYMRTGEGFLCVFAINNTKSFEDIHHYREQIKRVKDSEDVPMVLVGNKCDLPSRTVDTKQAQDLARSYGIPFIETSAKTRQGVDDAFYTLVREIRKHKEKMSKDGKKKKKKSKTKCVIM
Format: cell-based
Procedure, shortened: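 Ratio of phospho-ERK(Thr202/Tyr204) to GAPDH, read by near-infrared secondary antibodies on fixed, permeabilised NCI-H358 cells, expressed relative to DMSO control. Compound exposure was 3 h at 0.5% DMSO. IC50 values come from 4-parameter curve fits.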
`C=CC(=O)N1CCN(c2nc(OCCN3CCCCC3)nc3c2CCN(c2cccc4ccccc24)C3)C[C@@H]1CC#N` [Example 409, (S)-2-(1-acryloyl-4-(7-(naphthalen-1-yl)-2-(2-(piperidin-1-yl)ethoxy)-5,6,7,8-tetrahydropyrido[3,4-d]pyrimidin-4-yl)piperazin-2-yl)acetonitrile] was tested, and the IC50 was 0.1 to 1000 nM.
`C=CC(=O)N1CCN(c2nc(OC[C@@H]3CCN(C)C3)nc3c2CCN(c2cccc4ccccc24)C3)C[C@@H]1CC#N` [Example 410, 2-((S)-1-acryloyl-4-(2-(((R)-1-methylpyrrolidin-3-yl)methoxy)-7-(naphthalen-1-yl)-5,6,7,8-tetrahydropyrido[3,4-d]pyrimidin-4-yl)piperazin-2-yl)acetonitrile] showed an IC50 of 0.1 to 1000 nM.
`C=CC(=O)N1CCN(c2nc(OC[C@@H]3CCCN3C)nc3c2CCN(c2cccc(F)c2C)C3)CC1CC#N` (stereo partly drawn) [Example 411, 2-(1-acryloyl-4-(7-(3-fluoro-2-methylphenyl)-2-(((S)-1-methylpyrrolidin-2-yl)methoxy)-5,6,7,8-tetrahydropyrido[3,4-d]pyrimidin-4-yl)piperazin-2-yl)acetonitrile] showed an IC50 of 0.1 to 1000 nM.
For `C=CC(=O)N1CCN(c2nc(OC[C@@H]3CCCN3C)nc3c2CCN(c2c(F)cccc2C(F)(F)F)C3)CC1CC#N` (stereo partly drawn) [Example 412], the IC50 was 0.1 to 1000 nM.
`C=CC(=O)N1CCN(c2nc(OC[C@@H]3CCCN3C)nc3c2CCN(c2ccc(F)cc2C(F)(F)F)C3)CC1CC#N` (stereo partly drawn) [Example 413, 2-(1-acryloyl-4-(7-(4-fluoro-2-(trifluoromethyl)phenyl)-2-(((S)-1-methylpyrrolidin-2-yl)methoxy)-5,6,7,8-tetrahydropyrido[3,4-d]pyrimidin-4-yl)piperazin-2-yl)acetonitrile] showed an IC50 of 0.1 to 1000 nM.
In the case of `C=CC(=O)N1CCN(c2nc(OC[C@@H]3CCCN3C)nc3c2CCN(c2cccc(Cl)c2C(F)(F)F)C3)CC1CC#N` (stereo partly drawn) [Example 414, 2-(1-acryloyl-4-(7-(3-chloro-2-(trifluoromethyl)phenyl)-2-(((S)-1-methylpyrrolidin-2-yl)methoxy)-5,6,7,8-tetrahydropyrido[3,4-d]pyrimidin-4-yl)piperazin-2-yl)acetonitrile], the IC50 is reported as 0.1 to 1000 nM.
Compound `C=CC(=O)N1CCN(c2nc(OC[C@H]3C[C@H](O)CN3C)nc3c2CCN(c2cccc(F)c2C(F)(F)F)C3)CC1CC#N` (stereo partly drawn) [Example 415, 2-(1-acryloyl-4-(7-(3-fluoro-2-(trifluoromethyl)phenyl)-2-(((2R,4S)-4-hydroxy-1-methylpyrrolidin-2-yl)methoxy)-5,6,7,8-tetrahydropyrido[3,4-d]pyrimidin-4-yl)piperazin-2-yl)acetonitrile] has an IC50 of 0.1 to 1000 nM.
Work on `C=CC(=O)N1CCN(c2nc(OC[C@H]3C[C@@H](O)CN3C)nc3c2CCN(c2cccc(F)c2C(F)(F)F)C3)CC1CC#N` (stereo partly drawn) [Example 416, 2-(1-acryloyl-4-(7-(3-fluoro-2-(trifluoromethyl)phenyl)-2-(((2R,4R)-4-hydroxy-1-methylpyrrolidin-2-yl)methoxy)-5,6,7,8-tetrahydropyrido[3,4-d]pyrimidin-4-yl)piperazin-2-yl)acetonitrile] yielded an IC50 of 0.1 to 1000 nM.
In the case of `C=CC(=O)N1CCN(c2nc(OC[C@H]3C[C@H](F)CN3C)nc3c2CCN(c2cccc(F)c2C(F)(F)F)C3)CC1CC#N` (stereo partly drawn) [Example 417, 2-(1-acryloyl-4-(2-(((2R,4S)-4-fluoro-1-methylpyrrolidin-2-yl)methoxy)-7-(3-fluoro-2-(trifluoromethyl)phenyl)-5,6,7,8-tetrahydropyrido[3,4-d]pyrimidin-4-yl)piperazin-2-yl)acetonitrile], the IC50 is reported as 0.1 to 1000 nM.
With `C=CC(=O)N1CCN(c2nc(OC[C@@]3(C)CCCN3C)nc3c2CCN(c2cccc(F)c2C(F)(F)F)C3)CC1CC#N` (stereo partly drawn) [Example 418, 2-(1-acryloyl-4-(2-(((R)-1,2-dimethylpyrrolidin-2-yl)methoxy)-7-(3-fluoro-2-(trifluoromethyl)phenyl)-5,6,7,8-tetrahydropyrido[3,4-d]pyrimidin-4-yl)piperazin-2-yl)acetonitrile] the IC50 was 0.1 to 1000 nM.
`C=CC(=O)N1CCN(c2nc(OC[C@@H]3C[C@H](O)CN3C)nc3c2CCN(c2cccc4ccccc24)C3)CC1CC#N` (stereo partly drawn) [Example 419, 2-(1-acryloyl-4-(2-(((2S,4S)-4-hydroxy-1-methylpyrrolidin-2-yl)methoxy)-7-(naphthalen-1-yl)-5,6,7,8-tetrahydropyrido[3,4-d]pyrimidin-4-yl)piperazin-2-yl)acetonitrile] showed an IC50 of 0.1 to 1000 nM.
Compound `C=CC(=O)N1CCN(c2nc(OC[C@@H]3CCCN3C)nc3c2CCN(c2cccc(Cl)c2C)C3)C[C@@H]1CC#N` [Example 420, 2-((S)-1-acryloyl-4-(7-(3-chloro-2-methylphenyl)-2-(((S)-1-methylpyrrolidin-2-yl)methoxy)-5,6,7,8-tetrahydropyrido[3,4-d]pyrimidin-4-yl)piperazin-2-yl)acetonitrile] has an IC50 of 0.1 to 1000 nM.
`C=CC(=O)N1CCN(c2nc(OC[C@@H]3CCCN3C)nc3c2CCN(c2cccc(Cl)c2Cl)C3)C[C@@H]1CC#N` [Example 421, 2-((S)-1-acryloyl-4-(7-(2,3-dichlorophenyl)-2-(((S)-1-methylpyrrolidin-2-yl)methoxy)-5,6,7,8-tetrahydropyrido[3,4-d]pyrimidin-4-yl)piperazin-2-yl)acetonitrile] gave an IC50 of 0.1 to 1000 nM.
With `C=CC(=O)N1CCN(c2nc(OC[C@@H]3CCCN3C)nc3c2CCN(c2cccc(Cl)c2OC)C3)C[C@@H]1CC#N` [Example 422, 2-((S)-1-acryloyl-4-(7-(3-chloro-2-methoxyphenyl)-2-(((S)-1-methylpyrrolidin-2-yl)methoxy)-5,6,7,8-tetrahydropyrido[3,4-d]pyrimidin-4-yl)piperazin-2-yl)acetonitrile] the IC50 was 0.1 to 1000 nM.
Work on `CN(C)C/C=C/C(=O)N1CCN(c2nc(OC[C@H]3CCCN3C)nc3c2CCN(c2cccc(Cl)c2C(F)(F)F)C3)C[C@@H]1CC#N` [Example 423, 2-((S)-4-(7-(3-chloro-2-(trifluoromethyl)phenyl)-2-(((R)-1-methylpyrrolidin-2-yl)methoxy)-5,6,7,8-tetrahydropyrido[3,4-d]pyrimidin-4-yl)-1-((E)-4-(dimethylamino)but-2-enoyl)piperazin-2-yl)acetonitrile] yielded an IC50 of 0.1 to 1000 nM.
Compound `C=CC(=O)N1CCN(c2nc(OC[C@@H]3CCCN3C)nc3c2CCN(c2ccc(F)c(C)c2C)C3)C[C@@H]1CC#N` [Example 424, 2-((S)-1-acryloyl-4-(7-(4-fluoro-2,3-dimethylphenyl)-2-(((S)-1-methylpyrrolidin-2-yl)methoxy)-5,6,7,8-tetrahydropyrido[3,4-d]pyrimidin-4-yl)piperazin-2-yl)acetonitrile] has an IC50 of 0.1 to 1000 nM.
With `C=CC(=O)N1CCN(c2nc(OC[C@@H]3CCCN3C)nc3c2CCN(c2cccc(C)c2Cl)C3)C[C@@H]1CC#N` [Example 425, 2-((S)-1-acryloyl-4-(7-(2-chloro-3-methylphenyl)-2-(((S)-1-methylpyrrolidin-2-yl)methoxy)-5,6,7,8-tetrahydropyrido[3,4-d]pyrimidin-4-yl)piperazin-2-yl)acetonitrile] the IC50 was 0.1 to 1000 nM.
`C=CC(=O)N1CCN(c2nc(OC[C@@H]3C[C@@H](O)CN3C)nc3c2CCN(c2cccc(Cl)c2C(F)(F)F)C3)C[C@@H]1CC#N` [Example 426, 2-((S)-1-acryloyl-4-(7-(3-chloro-2-(trifluoromethyl)phenyl)-2-(((2S,4R)-4-hydroxy-1-methylpyrrolidin-2-yl)methoxy)-5,6,7,8-tetrahydropyrido[3,4-d]pyrimidin-4-yl)piperazin-2-yl)acetonitrile] gave an IC50 of 0.1 to 1000 nM.
